Reference: patent US20020169175A1, “Pharmaceutically acceptable salts of heterocyclic compounds” (DR. REDDY'S LABORATORIES LTD., priority 2001, published 2002)
Counter-ions that a name gives are not always drawn. Like-named read-outs stand apart in the source and are kept apart here. Blank lines part the entries; values can stand above or below the compound they belong to.

How the values were obtained:
[1] = Single dose oral pharmacokinetic studies in male Wistar rats; assay type: in vivo, rat; conditions: fasted, suspension in 0.25% sodium CMC; for half-life: read-out: t½ (converted)
Experimental: Single Dose Oral Pharmacokinetic Studies
Male Wistar rats (220-250 gm) were used in the experiments. The animals were maintained under standard laboratory conditions and had free access to feed and water ad libitum. Before experimentation animals were fasted overnight (˜15 h) during which they had free access to water ad libitum.
An amount equivalent to 30 mg of drug was weighed accurately and transferred into a clean mortar and triturated to obtain a fine powder. To this 0.5 ml of 0.25% sodium carboxy methyl cellulose (sodium CMC) was added to obtain a paste. To the obtained paste remaining 2.5 ml of sodium CMC was added to make up the volume to 3 ml. Based on the animal weight appropriate volume (body weight×3) of the prepared suspension was administered through oral gavage.
After dosing, at designated time points (0.5, 1, 2, 3, 5, 8, 12 and 24 h) 200 μl of blood was collected from retro orbital plexus into 0.5 ml eppendorff tubes containing EDTA (10 μl of 200 mg/ml solution in Milli Q water). Blood was centrifuged at 12,800 rpm for 5 min and obtained plasma and stored at −20° C. till further analysis.
100μl plasma was transferred into a clean and dry centrifuge tube. To this internal standard (10 μl of 100 μg/ml) was added and extracted with 2 ml of extraction recovery solvent. The contents were vortexed for 2 min, followed by centrifugation for 10 min at 2800 rpm. Clear organic layer (2×0.75 ml) was separated and dried under nitrogen gas at 50° C. The residue was reconstituted with 150 μl of mobile phase and vortexed for 20 sec, from this 50 μl was injected onto HPLC column.
Pharmacokinetic parameters were calculated by non-compartmental model analysis. The peak plasma concentration (Cmax) and the corresponding time (Tmax)were directly obtained from the raw data. The area under the plasma concentration versus time curve up to the last quantifiable time point, AUC(0−t) was obtained by the linear and log-linear trapezoidal summation. The AUC(0−t) extrapolated to infinity (i.e., AUC(0−∞)) by adding the quotient of Clast/Kel, where Clast represents the last measurable time concentration and Kel represents the apparent terminal rate constant. Kel was calculated by the linear regression of the log-transformed concentrations of the drug in the terminal phase. The half-life of the terminal elimination phase was obtained using the relationship t½=0.693/Kel.

[2] = male, Wistar, rat, plasma, po, 30 mg/kg
[3] = male, Wistar, rat, plasma, po, 30 mg/kg, read-out: AUC (0-t)
[4] = male, Wistar, rat, plasma, po, 30 mg/kg, read-out: Cmax
[5] = male, Wistar, rat, plasma, po, 30 mg/kg, read-out: Tmax

Compound: CCO[C@@H](Cc1ccc(OCCn2c(CC)nc3ccccc3c2=O)cc1)C(=O)O (as salt: salt) [Example 4, (−)-3-[4-[2-(2-Ethyl-4-oxo-3,4-dihydroquinazolin-3-yl)ethoxy]phenyl]-2ethoxypropanoic acid lysine salt]
melting point: 152 to 155 °C

Compound: CCO[C@@H](Cc1ccc(OCCn2c(CC)nc3ccccc3c2=O)cc1)C(=O)O (as salt: salt) [Example 7, (−)-3-[4-[2-(2-Ethyl-4-oxo-3,4-dihydroquinazolin-3-yl)ethoxy]phenyl]-2-ethoxypropanoic acid N-methyl glucamine salt]
melting point: 114 to 116 °C

Compound: CCO[C@@H](Cc1ccc(OCCn2c(CC)nc3ccccc3c2=O)cc1)C(=O)O (as salt: salt) [Example 10, (−)-3-[4-[2-(2-Ethyl-4-oxo-3,4-dihydroquinazolin-3-yl)ethoxy]phenyl]-2-ethoxypropanoic acid magnesium salt]
melting point: > 250 °C

Compound: CCO[C@@H](Cc1ccc(OCCn2c(CC)nc3ccccc3c2=O)cc1)C(=O)O (as salt: salt) [Example 11, (−)-3-[4-[2-(2-Ethyl-4-oxo-3,4-dihydroquinazolin-3-yl)ethoxy]phenyl]-2-ethoxypropanoic acid arginine salt]
melting point: 216 to 220 °C

melting point: 110 to 112 °C
Compound: CCCc1nn(C)c2c(=O)n(CCOc3ccc(C[C@H](OCC)C(=O)O)cc3)c(C)nc12 (as salt: salt) [Example 24, 3-[4-[2-(1,5-Dimethyl-7-oxo-3-propyl-6,7-dihydro-1H-pyrazolo[4,3-d]pyrimidin-6-yl)ethoxy]phenyl]-2-ethoxypropionic acid aminoguanidine hydrogen carbonate salt]

Compound: CCCc1nn(C)c2c(=O)n(CCOc3ccc(C[C@H](OCC)C(=O)O)cc3)c(CC)nc12 (as salt: salt) [Example 36, (−)-3-[4-[2-(1-Methyl-5-ethyl-7-oxo-3-propyl-6,7-dihydro-1H-pyrazolo[4,3-d]pyrimidin-6-yl)ethoxy]phenyl]-2-ethoxypropionic acid arginine salt]
melting point: 235 °C

Compound: CCCc1nn(C)c2c(=O)n(CCOc3ccc(C[C@H](OCC)C(=O)O)cc3)c(CC)nc12 (as salt: salt) [Example 39, (−)-3-[4-[2-(1-Methyl-5-ethyl-7-oxo-3-propyl-6,7-dihydro-1H-pyrazolo[4,3-d]pyrimidin-6-yl)ethoxy]phenyl]-2-ethoxypropionic acid aminoguanidine hydrogen carbonate salt]
melting point: 130 °C

Compound: CCCc1nn(C)c2c(=O)n(CCOc3ccc(C[C@H](OCC)C(=O)O)cc3)c(CC)nc12 (as salt: salt) [Example 41, (−)-3-[4-[2-(1-Methyl-5-ethyl-7-oxo-3-propyl-6,7-dihydro-1H-pyrazolo[4,3-d]pyrimidin-6-yl)ethoxy]phenyl]-2-ethoxypropionic acid dicyclohexylamine salt]
melting point: 138 to 140 °C

Compound: CCCc1nn(C)c2c(=O)n(CCOc3ccc(C[C@H](OCC)C(=O)O)cc3)c(CC)nc12 (as salt: salt) [Example 44, (−)-3-[4-[2-(1-Methyl-5-ethyl-7-oxo-3-propyl-6,7-dihydro-1H-pyrazolo[4,3-d]pyrimidin-6-yl)ethoxy]phenyl]-2-ethoxypropionic acid metformin salt]
melting point: 118 °C

Compound: CCCc1nn(C)c2c(=O)n(CCOc3ccc(C[C@H](OCC)C(=O)O)cc3)c(CC)nc12 (as salt: tromethamine) [Example 40, (−)-3-[4-[2-(1-Methyl-5-ethyl-7-oxo-3-propyl-6,7-dihydro-1H-pyrazolo[4,3-d]pyrimidin-6-yl)ethoxy]phenyl]-2-ethoxypropionic acid tromethamine salt]
melting point: 116 to 118 °C

Compound: CCCc1nn(C)c2c(=O)n(CCOc3ccc(C[C@H](OCC)C(=O)[O-])cc3)c(CC)nc12.[K+] (stereo in doubt)
melting point: 164 °C

Compound: CCCc1nn(C)c2c(=O)n(CCOc3ccc(C[C@H](OCC)C(=O)[O-])cc3)c(CC)nc12.[Li+] (stereo in doubt)
melting point: 215 to 218 °C

Compound: CCO[C@@H](Cc1ccc(OCCn2c(CC)nc3ccccc3c2=O)cc1)C(=O)[O-].[Li+] (stereo in doubt)
melting point: 245 to 247 °C

Compound: CCO[C@@H](Cc1ccc(OCCn2c(CC)nc3ccccc3c2=O)cc1)C(=O)O [Example 4, (−)-3-[4-[2-(2-Ethyl-4-oxo-3,4-dihydroquinazolin-3-yl)ethoxy]phenyl]-2ethoxypropanoic acid lysine salt]
Kel [1]: 0.31 h⁻¹
AUC(0-inf) [1, 2]: 38400 ng·h/mL
AUC(0-t) [1, 3]: 40600 ng·h/mL
Cmax [1, 4]: 38700 ng/mL
Tmax [1, 5]: 0.5 h
half-life [1, 2]: 1.97 h

Compound: CCO[C@@H](Cc1ccc(OCCn2c(CC)nc3ccccc3c2=O)cc1)C(=O)O [Example 7, (−)-3-[4-[2-(2-Ethyl-4-oxo-3,4-dihydroquinazolin-3-yl)ethoxy]phenyl]-2-ethoxypropanoic acid N-methyl glucamine salt]
AUC (0-∞) [1]: 51430 ng·h/mL
AUC(0-t) [1]: 51650 ng·h/mL
Cmax [1]: 40250 ng/mL
Kel [1]: 0.38 h⁻¹
Tmax [1]: 0.90 h
t½ [1]: 1.91 h

Compound: CCO[C@@H](Cc1ccc(OCCn2c(CC)nc3ccccc3c2=O)cc1)C(=O)O [Example 10, (−)-3-[4-[2-(2-Ethyl-4-oxo-3,4-dihydroquinazolin-3-yl)ethoxy]phenyl]-2-ethoxypropanoic acid magnesium salt]
AUC (0-∞) [1]: 74070 ng·h/mL
AUC(0-t) [1]: 75890 ng·h/mL
Cmax [1]: 54210 ng/mL
Kel [1]: 0.34 h⁻¹
Tmax [1]: 0.50 h
t½ [1]: 2.16 h

Compound: CCCc1nn(C)c2c(=O)n(CCOc3ccc(C[C@H](OCC)C(=O)[O-])cc3)c(CC)nc12.[Na+] [Example 35, (−)-3-[4-[2-(1-Methyl-5-ethyl-7-oxo-3-propyl-6,7-dihydro-1H-pyrazolo[4,3-d]pyrimidin-6-yl)ethoxy]phenyl]-2-ethoxypropionic acid sodium salt]
melting point: 112 to 114 °C

Compound: CCCc1nn(C)c2c(=O)n(CCOc3ccc(C[C@H](OCC)C(=O)O)cc3)c(CC)nc12 [Example 40, (−)-3-[4-[2-(1-Methyl-5-ethyl-7-oxo-3-propyl-6,7-dihydro-1H-pyrazolo[4,3-d]pyrimidin-6-yl)ethoxy]phenyl]-2-ethoxypropionic acid tromethamine salt]
Kel [1]: 0.60 h⁻¹
Tmax [1]: 0.75 h
AUC(0-inf) [1, 2]: 78600 ng·h/mL
AUC(0-t) [1, 3]: 77800 ng·h/mL
Cmax [1, 4]: 34200 ng/mL
half-life [1, 2]: 1.2 h

Kel [1]: 0.32 h⁻¹
AUC(0-inf) [1, 2]: 62900 ng·h/mL
AUC(0-t) [1, 3]: 61200 ng·h/mL
Cmax [1, 4]: 17700 ng/mL
Tmax [1, 5]: 1.33 h
half-life [1, 2]: 2.19 h
Compound: CCO[C@@H](Cc1ccc(OCCn2c(CC)nc(-c3ccccc3)cc2=O)cc1)C(=O)[O-].[K+] [Example 46, (−)2-Ethoxy-3-[4-[2-[2-ethyl-6-oxo-4-phenyl-1,6-dihydropyrimidin-1-yl]ethoxy]phenyl]propanoic acid potassium salt]

Kel [1]: 0.34 h⁻¹
AUC(0-inf) [1, 2]: 83300 ng·h/mL
AUC(0-t) [1, 3]: 82200 ng·h/mL
Cmax [1, 4]: 39500 ng/mL
Tmax [1, 5]: 0.5 h
half-life [1, 2]: 2.07 h
Compound: CCO[C@@H](Cc1ccc(OCCn2c(CC)nc(-c3ccccc3)cc2=O)cc1)C(=O)[O-].[Na+] [Example 47, (−)2-Ethoxy-3-[4-[2-[2-ethyl-6-oxo-4-phenyl-1,6-dihydropyrimidin-1-yl]ethoxy]phenyl]propanoic acid sodium salt]

Kel [1]: 0.29 h⁻¹
AUC(0-inf) [1, 2]: 92600 ng·h/mL
AUC(0-t) [1, 3]: 90100 ng·h/mL
Cmax [1, 4]: 50400 ng/mL
Tmax [1, 5]: 0.5 h
half-life [1, 2]: 2.18 h
Compound: CCO[C@@H](Cc1ccc(OCCn2c(CC)nc(-c3ccccc3)cc2=O)cc1)C(=O)O [Example 48, (−)2-Ethoxy-3-[4-[2-[2-ethyl-6-oxo-4-phenyl-1,6-dihydropyrimidin-1-yl]ethoxy]phenyl]propanoic acid L-arginine salt]
